Experimental data published in patent publication US20070015777A1, “Use of Inhibitors of the Ubiquitin Proteasome Pathway as a Method of Increasing Contractility of the Heart” (Myogen, Inc., priority 2005, published 2007).
pEC50: −log10 of the molar value. “Also recorded” adds a separate entry of the source. Peptide text beside a SMILES is read from it. * marks the point of attachment. Cbz = O=C(OCc1ccccc1)*

Tests used:
[1] = tested on: alpha myosin heavy chain protein; assay: Cytoblot assay for alpha myosin heavy chain protein content in NRVM; type: cell-based, rat; details: MG132 100 nM, 48 hours, cytoblot (FIG. 1)
Experimental: (§1) NRVM culture. For preparations of neonatal rat ventricular myocytes (NRVMs), hearts were removed from 10-20 newborn (1-2 days old) Sprague-Dawley rats. Isolated ventricles were pooled, minced and dispersed by three 20-minute incubations at 37° C. in Ads buffer (116 mM NaCl, 20 mM HEPES, 10 mM NaH2PO4, 5.5 mM glucose, 5 mM KCl, 0.8 mM MgSO4, pH 7.4) containing collagenase Type 11 (65 units/ml, Worthington) and pancreatin (0.6 mg/ml, GibcoBRL). Dispersed cells were applied to a discontinuous gradient of 40.5% and 58.5% (v/v) Percoll (Amersham Biosciences), centrifuged, and myocytes collected from the interface layer. Myocyte preparations were pre-plated in Dulbecco's modified Eagle's medium (DMEM, Cellgro), supplemented with 10% (v/v) charcoal stripped fetal bovine serum (FBS, HyClone), 4 mM L-glutamine and 1% penicillin/streptomycin for 1 hour at 37° C. to reduce fibroblast contamination, then plated at a density of 2.5×10^5 cells per well on 6-well tissue culture plates (or 10,000 cells/well on 96-well tissue culture plates) coated with a 0.2% (w/v) gelatin solution. […]
(§2) NRVM protein quantitation by cytoblot (alpha myosin, beta myosin, MCIP1). […] Plates were read in a 96-well luminometer (Packard Fusion).

[2] = tested on: β-myosin heavy chain protein; assay: Cytoblot assay for beta myosin heavy chain protein content in phenylephrine-treated NRVM; type: cell-based, rat; details: phenylephrine 20 μM, MG132 100 and 1000 nM, 48 hours, cytoblot (FIG. 2)
Experimental: as §1, §2

SERCA = assay: Western blot analysis of NRVM: SERCA; type: cell-based, rat; details: with or without phenylephrine 20 μM, MG132 370, 1500 and 3000 nM, 48 hours, Western blot (FIG. 3)
Experimental: (§3) NRVM culture. For preparations of neonatal rat ventricular myocytes (NRVMs), hearts were removed from 10-20 newborn (1-2 days old) Sprague-Dawley rats. Isolated ventricles were pooled, minced and dispersed by three 20-minute incubations at 37° C. in Ads buffer (116 mM NaCl, 20 mM HEPES, 10 mM NaH2PO4, 5.5 mM glucose, 5 mM KCl, 0.8 mM MgSO4, pH 7.4) containing collagenase Type 11 (65 units/ml, Worthington) and pancreatin (0.6 mg/ml, GibcoBRL). Dispersed cells were applied to a discontinuous gradient of 40.5% and 58.5% (v/v) Percoll (Amersham Biosciences), centrifuged, and myocytes collected from the interface layer. […]
(§4) Western Blots. […] Protein concentrations were determined by the bicinchoninic acid method (BCA Protein Assay, Pierce) with bovine serum albumin as a standard. Equivalent quantities of protein samples (10 μg/lane) were denatured in Laemmli buffer and resolved on Tris-glycine SDS-PAGE gels (4-20% acrylamide gradient, Invitrogen). […]

phospholamban (PLB) = assay: Western blot analysis of NRVM: phospholamban; type: cell-based, rat; details: with or without phenylephrine 20 μM, MG132 370, 1500 and 3000 nM, 48 hours, Western blot (FIG. 3)
Experimental: as §3, §4

phospho-phospholamban = assay: Western blot analysis of NRVM: phospho-phospholamban; type: cell-based, rat; details: with or without phenylephrine 20 μM, MG132 370, 1500 and 3000 nM, 48 hours, Western blot (FIG. 3)
Experimental: as §3, §4

alpha myosin heavy chain = assay: Western blot analysis of NRVM: alpha myosin heavy chain; type: cell-based, rat; details: with or without phenylephrine 20 μM, MG132 370, 1500 and 3000 nM, 48 hours, Western blot (FIG. 3)
Experimental: as §3, §4

[3] = tested on: atrial natriuretic factor (ANF) secretion; assay: Competitive ANF ELISA on media supernatants of phenylephrine-treated NRVM; type: cell-based; details: Rattus norvegicus, 48 h, phenylephrine 20 μM, 48 hours (FIG. 4), read-out: EC50 for suppression of PE-induced ANF secretion
Experimental: as §3
(§5) ANF and toxicity assays. ANF in media supernatants was quantitated by competitive ELISA using a monoclonal anti-ANF antibody (Biodesign) and a biotinylated ANF peptide (Phoenix Peptide). Total cellular protein was quantitated by standard Coomassie dye-binding assay; cells were lysed in protein assay reagent (BioRad) and absorbance at A595 was measured after 1 hour. Cytotoxicity was quantitated by measuring release of adenylate kinase (AK) from cultured NRVM into culture medium (ToxiLight kit, Cambrex).

NRVM = assay: Cytotoxicity assay (adenylate kinase release, ToxiLight) in NRVM; type: cell-based, rat; details: 48 hours, at MG132 concentrations that suppress hypertrophy (FIG. 4)
Experimental: as §3, §5

[4] = tested on: modulatory calcineurin interacting protein 1 (MCIP1); assay: Cytoblot assay for MCIP1 protein content in NRVM; type: cell-based, rat
Experimental: as §1, §2

MCIP1 protein = assay: Western blot analysis for MCIP1 protein in NRVM; type: cell-based, rat; details: range of MG132 concentrations, 48 hours (FIG. 6)
Experimental: as §3, §4

[5] = tested on: total ubiquitinated protein; assay: Western blot analysis for total ubiquitinated protein in NRVM; type: cell-based, rat; details: range of MG132 concentrations, 48 hours (FIG. 6)
Experimental: as §3, §4

[6] = tested on: nuclear factor of activated T cells (NFAT); assay: Calcineurin-dependent nuclear import of GFP-NFAT in adenovirus-infected NRVM (immunofluorescence); type: cell-based, rat; details: NRVM infected with adenovirus encoding activated calcineurin and GFP-NFAT, MG132 1 μM (FIG. 7)
Experimental: as §1, with “solution. After 24 hours in culture, myocyte preparations were transferred to serum-free maintenance medium (DMEM supplemented with 0.1% (v/v) Nutridoma (Roche), L-glutamine and penicillin/streptomycin). Where indicated, NRVM were treated with test compounds for a period of 48 hrs.” for “solution.”

[7] = tested on: neonatal rat ventricular myocytes (NRVMs); details: NRVM cell culture model, Dreger 2002; cited from earlier work

CC(C)C[C@@H](C=O)NC(=O)[C@H](CC(C)C)NC(=O)[C@H](CC(C)C)NC(=O)OCc1ccccc1 [MG132] (Cbz-Leu-Leu-Leu-aldehyde)
alpha myosin heavy chain protein content [1]: significantly increased expression of alpha myosin heavy chain protein; also recorded: increases cardiac alpha myosin heavy chain protein expression | β-myosin heavy chain protein content [2]: effectively suppressed adrenergic agonist (phenylephrine) dependent upregulation of beta myosin heavy chain protein; also recorded: suppresses hypertrophic agonist-dependent increases in cardiac beta myosin heavy chain protein expression | expression of SERCA protein (SERCA): increased in vitro expression of cardiac SERCA protein; also recorded: increases expression of SERCA | expression of phospholamban (PLB) (phospholamban (PLB)): decreased expression of the SERCA inhibitory protein, phospholamban (PLB); also recorded: decreases expression of cardiac phospholamban | PLB phosphorylation (phospho-phospholamban) (phospho-phospholamban): dose-dependent increase in PLB phosphorylation; also recorded: increases expression of SERCA, alpha myosin heavy chain and phospho-phospholamban | expression of alpha myosin heavy chain (Western blot) (alpha myosin heavy chain): increases expression of SERCA, alpha myosin heavy chain | pEC50 [3]: ~7.70 | cytotoxicity (release of adenylate kinase) (NRVM): no release of adenylate kinase (AK); also recorded: non-cytotoxic concentrations | pEC50 ([4]; Rattus norvegicus, 48 hours, cytoblot (FIG. 5), read-out: EC50 for induction of cardiac MCIP1 expression): 8.00 | MCIP1 protein expression (cytoblot) ([4]; range of MG132 concentrations, 48 hours (FIG. 5)): dose-dependent increase in expression of modulatory calcineurin interacting protein 1 (MCIP1); also recorded: increases cardiac modulatory calcineurin interacting protein 1 (MCIP1) protein expression | MCIP1 protein expression (Western blot) (MCIP1 protein): increases cardiac modulatory calcineurin interacting protein 1 (MCIP1) protein expression | total ubiquitinated protein [5]: induced accumulation of ubiquitinated protein | calcineurin-dependent nuclear import of GFP-NFAT [6]: blocked the ability of constitutively activated calcineurin to promote nuclear import of NFAT; also recorded: suppresses calcineurin-dependent nuclear import | anti-hypertrophic effect (β-MyHC levels, cell size and morphology, BNP, sarcomeric actin) [7]: anti-hypertrophic
